# Test results: patent publication US11834428B2, “Dihydromyricetin nanocrystals and preparation method and application thereof” (Shaanxi University of Science and Technology, priority 2022, dated 2023)
# How the values were obtained:
# [1] = Particle size of dihydromyricetin nanocrystals; format: physicochemical; details: API
# Method: In order to describe the dihydromyricetin nanocrystals provided by the disclosure, the relevant properties of the embodiments 1 to 6 and the comparative embodiments are measured. 1. The Effect of Stabilizers on the Particle Size and Solubilization Effect of the Dihydromyricetin Nanocrystals, See Table 1.
# [2] = Solubility of dihydromyricetin nanocrystals and API (solubility in cold water); format: physicochemical; details: for solubility: cold water
# Description: 1. The Effect of Stabilizers on the Particle Size and Solubilization Effect of the Dihydromyricetin Nanocrystals, See Table 1.
smiles,measurement,setting,value
"O=C1c2c(O)cc(O)cc2O[C@H](c2cc(O)c(O)c(O)c2)[C@H]1O [Dihydromyricetin API, Dihydromyricetin]",Particle size,[1],≥12 μm
same,solubility,"[2]; aqueous with cosolvent or surfactant or cyclodextrin, stabilizer sodium dodecyl sulfate (SDS)",300 µg/mL
same,solubility,"[2]; water, no stabilizer (/)",40 µg/mL
same,Solubility in cold water,[2]; stabilizer Tween-80,600 µg/mL
